In patent US6214795A, “Peptide compounds useful for modulating FGF receptor activity” (Praecis Pharmaceuticals, Inc., priority 1996, dated 2001):
Where two headings read alike, the source gives them in different places. Residues, ends and D or L forms follow the SMILES beside them. No end group written: not given here. *: point of attachment. Biotin = O=C1N[C@H]2[C@H](CS[C@H]2CCCCC(=O)*)N1

Assays:
FGFR2-IIIC = FGFR2-IIIC (Homo sapiens, UniProt P21802); assay: FGF receptor binding assay: inhibition of 125I-bFGF binding to FGF receptor
Protocol: The ability of a peptide compound to bind to an FGF receptor can be determined using one or both of the receptor binding assays described in this example, which measure the ability of a test compound to inhibit the binding of radiolabeled bFGF to the FGF receptor. The first assay is a cell-based assay, utilizing FGF receptor-expressing cells. Cells expressing an FGF receptor are seeded on a 96 well plate (50,000 cells/well) and incubated overnight at 37° C., 5% CO2. The cells are then washed once with binding buffer (Dulbecco's Modified Eagle's Medium (DMEM) with HEPES, gelatin and heparin). A test peptide is diluted to the desired concentration in binding buffer with heparin (15 U/ml) and added to the cells (25 μl per well). ^125 I-bFGF (50,000 cpm/well; Amersham Life Sciences), diluted in binding buffer with heparin, is added to each well (25 μl per well so that final volume is 50 μl). The cells are incubated in a humidified chamber at 4° C. for 3 hours. The cells are washed twice with binding buffer to remove unbound material. The washed cells are then dissolved in 100 μl of 1N NaOH and counted in a gamma counter. The ability of a test compound to bind to FGFR is evidenced by the reduced binding of ^125 I-bFGF to the cells in the presence of the test compound as compared to the binding of ^125 I-bFGF to the cells in the absence of the test compound.
A second FGFR binding assay utilizes biotinylated soluble FGFR. Biotinylated FGFR is mixed in an eppendorf tube with ^125 I-bFGF and a test compound in binding buffer. The tubes are placed on an eppendorf roller at 4° C. for 1.5 hours. Magnetic streptavidin beads (CPG, Inc.) are prepared by washing twice with binding buffer. After the 1.5 hour incubation of the tubes, 15 μl of magnetic streptavidin beads are added to each tube and continued on the eppendorf roller for 10 minutes at 4° C. to allow the strepavidin to interact with the biotinylated FGFR. The tubes are removed from the roller and spun down in a microfuge for 2 minutes at 3000 rpm. Using magnets, the magnetic beads are washed twice with binding buffer. 100 μl of binding buffer is added to each tube and the contents are moved to a 12×75 mm test tube. The contents (i.e., strepavidin beads, with biotinylated FGFR and ^125 I-bFGF bound thereto) are counted in a Gamma counter. The ability of a test compound to bind to FGFR is evidenced by the reduced binding of ^125 I-bFGF to the biotinylated FGFR in the presence of the test compound as compared to the binding of ^125 I-bFGF to the biotinylated FGFR in the absence of the test compound.

NIH 3T3 cells = assay type: cell-based
Protocol: A second functional assay for FGFR is a proliferation assay, based on the fact that NIH 3T3 cells show enhanced growth in the presence of increasing concentrations of bFGF. NIH 3T3 cells are cultured (e.g., about 3 days) with bFGF (10 nM) in the presence or absence of a test peptide compound. Cell growth is quantitated using a standard method for detecting cell growth, such as tritiated thymidine incorporation or uptake of 3, ([…])2,5-diphenyl-tetrazolium bromide (MTT). MTT (commercially available from Sigma Chemical Co.) is a chromogenic substrate that is converted from yellow to blue in viable cells, which can be detected spectrophotometrically.

p42-MAP kinase = assay: Signal transduction assay: bFGF-induced phosphorylation/activation of MAP kinase in NIH 3T3 cells; assay type: cell-based
Text: The effect of peptide compounds on the functional activity of an FGF receptor can be evaluated in one or both of the functional assays described in this example. The first assay is a signal transduction assay, exploiting the fact that bFGF binding to FGFR initiates a phosphorylation cascade that includes the phosphorylation of MAP kinase (MAP-K). Accordingly, the ability of a test compound to modulate bFGF-induced phosphorylation of MAP-K is examined. NIH 3T3 cells are synchronized to quiescence by growing in medium containing 0.5% fetal bovine serum (FBS) for 2 days. The cells are then shifted into fresh 0.5% FBS-containing medium for 2 hours to reduce the basal level of MAP-K phosphorylation before the experiment. Test peptide compounds are dissolved in fresh dimethyl sulfoxide (DMSO) to 100 mg/ml and series dilutions are made in DMSO. […] Phosphorylation of MAP-K in the 3T3 cells is initiated by incubating the cells with the bFGF-containing medium in the presence or absence of test peptide for 15 minutes at 37° C. The phosphorylation is stopped by washing with cells with PBS and lysing the cells with sodium […] (SDS)-containing buffer. Cell lysates are separated on 12% SDS polyacrylamide gels and the proteins are transferred onto PVDF membranes. Membrane-bound cellular proteins are probed with a rabbit anti-phosphoMAP-K antibodies, followed by a goat anti-rabbit secondary antibody, labeled with horse radish peroxidase. The blots are then detected by the enhanced chemiluminescence (ECL) method.

[1] = Table 5 peptides (bFGF-binding peptides)
[2] = Table 3 peptides, values given in mM
[3] = Table 3 peptides, inhibition of bFGF binding to FGFR2-IIIC
[4] = Table 3 peptides, bFGF-induced MAP-K phosphorylation, read-out: MAP-K

Sequence of FGFR2-IIIC (P21802 22-377 limits assumed, species assumed): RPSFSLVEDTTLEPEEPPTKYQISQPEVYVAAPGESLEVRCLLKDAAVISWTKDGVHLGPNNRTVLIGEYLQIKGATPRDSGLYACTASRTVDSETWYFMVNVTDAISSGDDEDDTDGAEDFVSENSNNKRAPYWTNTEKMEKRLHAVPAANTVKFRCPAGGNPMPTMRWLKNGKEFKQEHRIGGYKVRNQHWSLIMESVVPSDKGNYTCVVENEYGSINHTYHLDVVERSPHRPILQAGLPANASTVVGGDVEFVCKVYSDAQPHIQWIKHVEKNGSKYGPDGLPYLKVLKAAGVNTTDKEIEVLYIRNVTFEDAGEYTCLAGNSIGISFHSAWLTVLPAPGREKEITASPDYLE

Compound | IC50 (NIH 3T3 cells) | IC50 (FGFR2-IIIC; [3]) | further results
ADGAAGYDWDDLLGGAA-NH2 [Compound 477, H-ADGAAGYDWDDLLGGAA-NH*TFA] | > 100 µM | – | IC50 (FGFR2-IIIC; [1]): > 0.1 mM
CC(C)C[C@H](NC(=O)[C@H](CC(C)C)NC(=O)[C@H](CC(=O)O)NC(=O)[C@H](CC(=O)O)NC(=O)[C@H](Cc1c[nH]c2ccccc12)NC(=O)[C@H](CC(=O)O)NC(=O)[C@H](Cc1ccc(O)cc1)NC(=O)CNC(=O)[C@H](C)NC(=O)[C@H](C)NC(=O)CNC(=O)[C@H](CC(=O)O)NC(=O)[C@H](C)NC(=O)CCCC[C@@H]1SC[C@@H]2NC(=O)N[C@@H]21)C(=O)N[C@@H](CO)C(=O)NCC(=O)N[C@@H](C)C(=O)N[C@@H](C)C(N)=O [Compound 476, Biotin-ADGAAGYDWDDLLSGAA-NH] (Biotin-ADGAAGYDWDDLLSGAA-NH2) | > 100 µM | – | IC50 (FGFR2-IIIC; [1]): > 0.1 mM
GSLMRMG-NH2 [Compound 663, H-GSLMRMG-NH*TFA] | – | – | IC50 (FGFR2-IIIC; [2]): > 1 mM
AHYLRQYLMRFR-NH2 [Compound 673, H-AHYLRQYLMRFR-NH*TFA] | – | ~0.008 mM | –
ADGAAGYDWDDLLSGAA-NH2 [Compound 475, H-ADGAAGYDWDDLLSGAA-NH*TFA] | > 100 µM | – | IC50 (FGFR2-IIIC; [1]): > 0.1 mM
CC(C)C[C@H](NC(=O)[C@H](CC(C)C)NC(=O)[C@H](CC(=O)O)NC(=O)[C@H](CC(=O)O)NC(=O)[C@H](Cc1c[nH]c2ccccc12)NC(=O)[C@H](CC(=O)O)NC(=O)[C@H](Cc1ccc(O)cc1)NC(=O)CNC(=O)[C@H](C)NC(=O)[C@H](C)NC(=O)CNC(=O)[C@H](CC(=O)O)NC(=O)[C@H](C)NC(=O)CCCC[C@@H]1SC[C@@H]2NC(=O)N[C@@H]21)C(=O)NCC(=O)NCC(=O)N[C@@H](C)C(=O)N[C@@H](C)C(N)=O [Compound 478, Biotin-ADGAAGYDWDDLLGGAA-NH] (Biotin-ADGAAGYDWDDLLGGAA-NH2) | > 100 µM | – | IC50 (FGFR2-IIIC; [1]): > 0.1 mM
GYFQYMALYG [Compound 567, H-GYFQYMALYG-OH*TFA] | – | > 0.1 mM | –
CC(=O)NCC(=O)N[C@@H](CS)C(=O)N[C@H](C(=O)N[C@@H](CC(=O)O)C(=O)N[C@@H](CC(C)C)C(=O)N[C@@H](Cc1ccc(O)cc1)C(=O)N[C@@H](Cc1c[nH]cn1)C(=O)N[C@@H](Cc1ccc(O)cc1)C(=O)N[C@H](C(=O)N[C@@H](Cc1ccc(O)cc1)C(=O)N[C@@H](CS)C(=O)NCC(N)=O)C(C)C)C(C)C [Compound 514, Acetyl-GCVDLYHYVYCG-NH] (Ac-GCVDLYHYVYCG-NH2) | 10 to 100 µM | – | Effect on proliferative activity of bFGF (NIH 3T3 cells; NIH 3T3 cells): antagonists of the proliferative activity of bFGF; IC50 (p42-MAP kinase; Table 5 peptides, read-out: MAP-K): ~50 µM
CC(C)C[C@H](NC(=O)[C@H](CC(=O)O)NC(=O)[C@@H](NC(=O)[C@H](CS)NC(=O)CNC(=O)[C@H](C)NC(=O)[C@H](C)NC(=O)CNC(=O)[C@H](CC(=O)O)NC(=O)[C@H](C)N)C(C)C)C(=O)N[C@@H](Cc1ccc(O)cc1)C(=O)N[C@@H](Cc1c[nH]cn1)C(=O)N[C@@H](Cc1ccc(O)cc1)C(=O)N[C@H](C(=O)N[C@@H](Cc1ccc(O)cc1)C(=O)N[C@@H](CS)C(=O)NCC(=O)NCC(=O)N[C@@H](C)C(=O)N[C@@H](C)C(N)=O)C(C)C [Compound 507] (H-ADGAAGCVDLYHYVYCGGAA-NH2) | 10 to 100 µM | – | Effect on proliferative activity of bFGF (NIH 3T3 cells; NIH 3T3 cells): antagonists of the proliferative activity of bFGF
YLRQYLMRFR-NH2 [Compound 671, H-YLRQYLMRFR-NH*TFA] | – | ~0.008 mM | Binding IC50 (FGFR2-IIIC; [3]): does not appear to further increase the IC50
HYLRQYLMRFR-NH2 [Compound 672, H-HYLRQYLMRFR-NH*TFA] | – | ~0.008 mM | –
GAHYLRQYLMRFLG-NH2 [Compound 658, H-GAHYLRQYLMRFLG-NH*TFA] | – | ~0.008 mM | IC50 (NIH 3T3 cells; NIH 3T3 cells, 10 nM bFGF, FIG. 6, read-out: Concentration that half maximally reduces bFGF-induced proliferation): 40 µM; IC50 (p42-MAP kinase; 1 nM bFGF, FIG. 5, read-out: Concentration that half maximally antagonizes bFGF activation of MAP-K): ~3 µM; IC50 (p42-MAP kinase; [4]): ~1 µM
bFGF: basic fibroblast growth factor, the FGF receptor ligand used as stimulus and unlabeled competitor [reference compound] | – | – | Activation of MAP-K (p42-MAP kinase; 1 and 10 nM, without test peptide, FIG. 3): 40-60%
Ac-GHDGEMYG-OH [Compound 660, Acetyl-GHDGEMYG-OH] | – | – | IC50 (FGFR2-IIIC; [2]): > 1 mM
GYLYLYMVG [Compound 656, H-GYLYLYMVG-OH*TFA] | – | > 0.1 mM | –
Ac-GSWGDWERSGDWFG-NH2 [Compound 512, Acetyl-GSWGDWERSGDWFG-NH] | > 100 µM | – | IC50 (FGFR2-IIIC; [1]): > 0.1 mM
LRQYLMRFR-NH2 [Compound 670, H-LRQYLMRFR-NH*TFA] | – | ~0.12 mM | –
GYYLLWMVG [Compound 564, H-GYYLLWMVG-OH*TFA] | – | > 0.1 mM | –
GDVFLSMYQFSVIG [Compound 622, H-GDVFLSMYQFSVIG-OH*TFA] | – | > 0.1 mM | –
GFLMMYMMG [Compound 566, H-GFLMMYMMG-OH*TFA] | – | > 0.1 mM | –
CC(=O)NCC(=O)N[C@@H](CS)C(=O)N[C@H](C(=O)N[C@@H](CC(C)C)C(=O)N[C@@H](CC(C)C)C(=O)N[C@@H](Cc1ccc(O)cc1)C(=O)N[C@@H](CC(=O)O)C(=O)N[C@@H](CCC(=O)O)C(=O)N[C@@H](CCCNC(=N)N)C(=O)N[C@H](C(=O)N[C@@H](CS)C(=O)NCC(N)=O)[C@@H](C)O)C(C)C [Compound 513, Acetyl-GCVLLYDERTCG-NH] (Ac-GCVLLYDERTCG-NH2) | > 100 µM | – | –
GYLAQYMARG-NH2 [Compound 662, H-GYLAQYMARG-NH*TFA] | – | ~0.3 mM | –
GAHYLRQYLMRFRG-NH2 [Compound 668, H-GAHYLRQYLMRFRG-NH*TFA] | – | ~0.003 mM | –
GFLGKYMESLMRMG-NH2 [Compound 659, H-GFLGKYMESLMRMG-NH*TFA] | – | ~0.3 mM | –
GAHYLRQYMMRFLG-NH2 [Compound 669, H-GAHYLRQYMMRFLG-NH*TFA] | – | ~0.02 mM | –
ADGAAGSWGDWERSGDWFGGAA-NH2 [Compound 509] | > 100 µM | – | IC50 (FGFR2-IIIC; [1]): > 0.1 mM
GAHNLRQYLMRFLG [Compound 623, H-GAHNLRQYLMRFLG-OH*TFA] | ~100 µM | ~0.12 mM | IC50 (p42-MAP kinase; [4]): ~50 µM; Effect on activation of MAP-K by bFGF (p42-MAP kinase; increasing concentrations of compound): clearly antagonized
GKALEWYKSLMRMG-NH2 [Compound 661, H-GKALEWYKSLMRMG-NH*TFA] | – | ~0.3 mM | –
